Data published in patent publication US20180327402A1, “TRIAZOLOPYRIDINE COMPOUNDS AND METHODS OF USE THEREOF” (Genentech, Inc., priority 2015, published 2018).
pKi: −log10 of the molar value. Where a name gives a salt, the structure may show the parent alone.

Assays:
[1] = target: T1, isolated recombinant JAK1 kinase domain (Homo sapiens, UniProt P23458); experiment: JAK enzyme assay (Caliper LabChip), JAK1; assay type: biochemical; conditions: 1.5 nM JAK1, ATP 25 μM, 22° C., 30 minutes; Morrison tight binding model
T1 construct: isolated recombinant JAK1 and JAK2 kinase domain
T1 sequence (P23458 875-1153 limits assumed): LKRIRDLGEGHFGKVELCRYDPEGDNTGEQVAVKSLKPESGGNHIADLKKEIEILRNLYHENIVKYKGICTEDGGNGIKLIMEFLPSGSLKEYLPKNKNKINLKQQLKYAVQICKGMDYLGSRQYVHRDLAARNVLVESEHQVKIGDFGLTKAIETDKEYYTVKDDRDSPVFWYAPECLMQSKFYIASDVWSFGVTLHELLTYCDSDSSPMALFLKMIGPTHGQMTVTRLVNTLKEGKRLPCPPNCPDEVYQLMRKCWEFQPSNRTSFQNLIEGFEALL
Protocol: (§1) The activity of the isolated recombinant JAK1 and JAK2 kinase domain was measured by monitoring phosphorylation of a peptide derived from JAK3 (Val-Ala-Leu-Val-Asp-Gly-Tyr-Phe-Arg-Leu-Thr-Thr, fluorescently labeled on the N-terminus with 5-carboxyfluorescein) using the Caliper LabChip® technology (Caliper Life Sciences, Hopkinton, Mass.). To determine inhibition constants (Ki), compounds were diluted serially in DMSO and added to 50 μL kinase reactions containing purified enzyme (1.5 nM JAK1, or 0.2 nM JAK2), 100 mM HEPES buffer (pH 7.2), 0.015% Brij-35, 1.5 μM peptide substrate, ATP (25 μM), 10 mM MgCl2, 4 mM DTT at a final DMSO concentration of 2%. Reactions were incubated at 22° C. in 384-well polypropylene microtiter plates for 30 minutes and then stopped by addition of 25 μL of an EDTA containing solution (100 mM HEPES buffer (pH 7.2), 0.015% Brij-35, 150 mM EDTA), resulting in a final EDTA concentration of 50 mM. After termination of the kinase reaction, the proportion of phosphorylated product was determined as a fraction of total peptide substrate using the Caliper LabChip® 3000 according to the manufacturer's specifications. Ki values were then determined using the Morrison tight binding model (Morrison, J. F., Biochim. Biophys. Acta. 185:269-296 (1969); William, J. W. and Morrison, J. F., Meth. Enzymol., 63:437-467 (1979)) modified for ATP-competitive inhibition [Ki ═Ki,app/(1+[ATP]/Km,app)].

[2] = target: T2, isolated recombinant JAK2 kinase domain (Homo sapiens, UniProt O60674); experiment: JAK enzyme assay (Caliper LabChip), JAK2; assay type: biochemical; conditions: 0.2 nM JAK2, ATP 25 μM, 22° C., 30 minutes; Morrison tight binding model
T2 construct: isolated recombinant JAK1 and JAK2 kinase domain
T2 sequence (O60674 849-1124 limits assumed): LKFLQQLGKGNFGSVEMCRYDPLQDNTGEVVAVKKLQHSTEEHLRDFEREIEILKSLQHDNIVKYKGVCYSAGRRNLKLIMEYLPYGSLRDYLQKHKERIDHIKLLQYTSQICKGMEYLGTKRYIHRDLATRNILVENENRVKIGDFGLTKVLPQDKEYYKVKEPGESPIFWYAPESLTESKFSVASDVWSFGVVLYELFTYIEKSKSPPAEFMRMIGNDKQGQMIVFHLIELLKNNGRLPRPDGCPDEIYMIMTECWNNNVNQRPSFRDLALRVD
Protocol: as §1

Row | Structure (SMILES) | pKi [1] | pKi [2]
1 | OCCn1cc(Nc2nc3c(N4CCC(CO)(c5ccc(Cl)cc5)CC4)cccn3n2)cn1 [Compound 1-15, 2-[4-[[8-[4-(4-chlorophenyl)-4-(hydroxymethyl)-1-piperidyl]-[1,2,4]triazolo[1,5-a]pyridin-2-yl]amino]pyrazol-1-yl]ethanol] | 9.96 | 10.05
2 | COCCOc1ccc(COc2ccc(-c3cccn4nc(Nc5cnn(C)c5)nc34)cc2)cn1 [Compound 3-1, 8-[4-[[6-(2-methoxyethoxy)-3-pyridyl]methoxy]phenyl]-N-(1-methylpyrazol-4-yl)-[1,2,4]triazolo[1,5-a]pyridin-2-amine] | 9.20 | 9.49
3 | Cn1cc(Nc2nc3c(N4CCC(CNCC(F)(F)F)(c5ccc(Cl)cc5)CC4)cccn3n2)cn1 [G, 8-[4-(4-chlorophenyl)-4-[(2,2,2-trifluoroethylamino)methyl]-1-piperidyl]-N-(1-methylpyrazol-4-yl)-[1,2,4]triazolo[1,5-a]pyridin-2-amine] | 8.00 | 8.54
4 | CSc1ccc(C2(CC#N)CCN(c3cccn4nc(Nc5cnn(CCN6CCN(C7CCOCC7)CC6)c5)nc34)CC2)cc1 [M, 2-[4-(4-methylsulfanylphenyl)-1-[2-[[1-[2-(4-tetrahydropyran-4-ylpiperazin-1-yl)ethyl]pyrazol-4-yl]amino]-[1,2,4]triazolo[1,5-a]pyridin-8-yl]-4-piperidyl]acetonitrile] | 8.48 | 9.02
5 | CC(C)CCn1cc(Nc2nc3c(N4CCC(CO)(c5ccc(Cl)cc5)CC4)cccn3n2)cn1 [Compound 1-13, [4-(4-chlorophenyl)-1-[2-[(1-isopentylpyrazol-4-yl)amino]-[1,2,4]triazolo[1,5-a]pyridin-8-yl]-4-piperidyl]methanol; formic acid] | 9.12 | 9.36
6 | CN(C)C(=O)CN1CCC2(CC1)CN(C(=O)N1CC=C(c3cccn4nc(Nc5cnn(C)c5)nc34)CC1)C2 [I, N,N-dimethyl-2-[2-[4-[2-[(1-methylpyrazol-4-yl)amino]-[1,2,4]triazolo[1,5-a]pyridin-8-yl]-3,6-dihydro-2H-pyridine-1-carbonyl]-2,7-diazaspiro[3.5]nonan-7-yl]acetamide] | 6.72 | 7.07
7 | OCC1(c2ccc(Cl)cc2)CCN(c2cccn3nc(Nc4cnn(CC5CCNCC5)c4)nc23)CC1 [Compound 1-1, [4-(4-chloropenyl)-1-[2-[[1-(4-piperidylmethyl)pyrazol-4-yl]amino]-[1,2,4]triazolo[1,5-a]pyridin-8-yl]-4-piperidyl]methanol; hydrochloride] | 9.68 | 10.35
8 | OCC1(c2ccc(Cl)cc2)CCN(c2cccn3nc(Nc4cnn(CC(F)F)c4)nc23)CC1 [Compound 1-14, [4-(4-chlorophenyl)-1-[2-[[1-(2,2-difluoroethyl)pyrazol-4-yl]amino]-[1,2,4]triazolo[1,5-a]pyridin-8-yl]-4-piperidyl]methanol] | 9.80 | 9.89
9 | Cn1cc(Nc2nc3c(N4CCC(c5ccc(Cl)cc5)(C(O)CN5CCOCC5)CC4)cccn3n2)cn1 (racemic) [B, 1-[4-(4-chlorophenyl)-1-[2-[(1-methylpyrazol-4-yl)amino]-[1,2,4]triazolo[1,5-a]pyridin-8-yl]-4-piperidyl]-2-morpholino-ethanol] | 9.01 | 9.24
10 | Cn1cc(Nc2nc3c(N4CCC(CO)(c5ccc(Cl)cc5)CC4)cccn3n2)cn1 [A, [4-(4-chlorophenyl)-1-[2-[(1-methylpyrazol-4-yl)amino]-[1,2,4]triazolo[1,5-a]pyridin-8-yl]-4-piperidyl]methanol] | 9.74 | 9.89
11 | CSc1ccc(C2(CC#N)CCN(c3cccn4nc(Nc5cnn(CCN6CCN(C(=O)N(C)C)CC6)c5)nc34)CC2)cc1 [Q, 4-[2-[4-[[8-[4-(cyanomethyl)-4-(4-methylsulfanylphenyl)-1-piperidyl]-[1,2,4]triazolo[1,5-a]pyridin-2-yl]amino]pyrazol-1-yl]ethyl]-N,N-dimethyl-piperazine-1-carboxamide] | 8.54 | 9.17
12 | COCCOc1ccc(COc2ccc(-c3cccn4nc(Nc5cnn(C[C@H]6CCCN6)c5)nc34)cc2)cn1 [Compound 3-4, 8-[4-[[6-(2-methoxyethoxy)-3-pyridyl]methoxy]phenyl]-N-[1-[[(2R)-pyrrolidin-2-yl]methyl]pyrazol-4-yl]-[1,2,4]triazolo[1,5-a]pyridin-2-amine] | 8.72 | 9.32
13 | OCC1(c2ccc(Cl)cc2)CCN(c2cccn3nc(Nc4cnn(CCCN5CCOCC5)c4)nc23)CC1 [Compound 1-10, [4-(4-chlorophenyl)-1-[2-[[1-(3-morpholinopropyl)pyrazol-4-yl]amino]-[1,2,4]triazolo[1,5-a]pyridin-8-yl]-4-piperidyl]methanol; formic acid] | 9.48 | 9.80
14 | CCc1cnn(C2(CC#N)CN(c3cccn4nc(Nc5cnn(Cc6cn(C7CCN(C8COC8)CC7)nn6)c5)nc34)C2)c1 [S, 2-[3-(4-ethylpyrazol-1-yl)-1-[1-[[1-[[1-[1-(oxetan-3-yl)-4-piperidyl]triazol-4-yl]methyl]pyrazol-4-yl]amino]-[1,2,4]triazolo[1,5-a]pyridin-8-yl]azetidin-3-yl]acetonitrile] | 9.05 | 9.24
15 | CNCCCn1cc(Nc2nc3c(-c4ccc(OCc5ccc(OCCOC)nc5)cc4)cccn3n2)cn1 [Compound 3-5, 8-[4-[[6-(2-methoxyethoxy)-3-pyridyl]methoxy]phenyl]-N-[1-[3-(methylamino)propyl]pyrazol-4-yl]-[1,2,4]triazolo[1,5-a]pyridin-2-amine] | 9.13 | 9.55
16 | OCC1(c2ccc(Cl)cc2)CCN(c2cccn3nc(Nc4cnn(Cc5ccncc5)c4)nc23)CC1 [Compound 1-6, [4-(4-chlorophenyl)-1-[2-[[1-(4-pyridylmethyl)pyrazol-4-yl]amino]-[1,2,4]triazolo[1,5-a]pyridin-8-yl]-4-piperidyl]methanol; formic acid] | 9.35 | 9.92
17 | CSc1ccc(C2(CC#N)CCN(c3cccn4nc(Nc5cnn(CCN(C)C)c5)nc34)CC2)cc1 [N, 2-[1-[2-[[1-[2-(dimethylamino)ethyl]pyrazol-4-yl]amino]-[1,2,4]triazolo[1,5-a]pyridin-8-yl]-4-(4-methylsulfanylphenyl)-4-piperidyl]acetonitrile] | 8.29 | 8.92
